According to patent US6060458A (The United States of America as represented by the …, priority 1998, dated 2000):
Numbering of substitutions follows the chain as printed.

How the values were obtained:
[1] = target: T1, mutant human alkyltransferase G156A (Homo sapiens, UniProt P16455, G156A); test: Inactivation of purified mutant human AGT G156A, residual activity on [3H]-methylated DNA substrate; format: biochemical; conditions: 30 min at 37° C. incubation with inactivator
T1 construct: made in house; E. coli by own knowledge of pIN vectors
T1 sequence (P16455 1-207 G156A): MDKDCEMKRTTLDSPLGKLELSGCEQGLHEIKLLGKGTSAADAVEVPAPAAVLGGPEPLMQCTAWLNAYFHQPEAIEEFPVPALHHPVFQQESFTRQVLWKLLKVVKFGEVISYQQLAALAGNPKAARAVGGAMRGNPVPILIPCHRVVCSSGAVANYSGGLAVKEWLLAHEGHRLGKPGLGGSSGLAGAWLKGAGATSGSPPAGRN
Protocol: (§1) Whether or not a given single-stranded oligodeoxyribonucleotide inactivates a wild-type or mutant human alkyltransferase can be determined by measuring alkyltransferase depletion. For example, a stock solution (100 mM) of a given single-stranded oligodeoxyribonucleotide in an aqueous or mixed aqueous/organic solvent can be prepared. Solutions of the human wild-type AGT, mutant human AGT, or the AGT from HT29 cells and cell extracts (Domoradzki et al., Carcinogenesis 5: 1641-1647 (1984)) can be incubated with varying concentrations (between 0 and 400 μM, for example) of the oligodeoxyribonucleotide for 30 min in a buffer containing 50 mM Tris-HCl, pH 7.5, 0.1 mM EDTA, and 5 mM dithiothreitol, and alkyltransferase depletion can be measured. Alternatively, cells can be plated at a density of 5×10^6 cells/T75 flask and allowed to grow for three days, at which time the medium can be replaced with medium containing a given concentration of an oligodeoxyribonucleotide. After four hours, cells can be harvested and frozen at -80° C. for analysis of alkyltransferase depletion later. Alkyltransferase depletion is determined by measuring loss of O^6 -[^3 H]methylguanine, for example, from a [^3 H]methylated DNA substrate, for example, which can be prepared by reacting [^3 H]methylnitrosourea (21.5 Ci/mmol) with calf thymus DNA as described previously (Domoradzki et al. (1984), supra; and Dolan et al. (1990), supra).
(§2) Wild-type human AGT and mutants thereof, namely P140A and G156A, were prepared using the pIN vector expression system. pIN-AGT, pIN-P140A (Pro-140 to Ala) and pIN-G156A (Gly-156 to Ala) (Crone et al. (1993), supra; Crone et al. (1994), supra; and Pegg et al. (1993), supra).
(§3) The wild-type and mutant AGT proteins expressed from the pIN vectors were purified to homogeneity by ammonium sulfate precipitation, Mono-S chromatography and gel filtration as previously described (Pegg et al. (1993), supra; and Kanugula et al. (1995), supra). […] Afterwards, residual AGT activity was determined by a 30 min incubation with a [^3 H]-methylated DNA substrate (1.0 ml volume), which had been methylated by reaction with N-[^3 H]-methyl-N-nitrosourea as previously described (Dolan et al. (1993), supra; and Dolan et al. (1991), supra).

[2] = system: wild-type human alkyltransferase (AGT); test: Inactivation of purified wild-type human AGT, residual activity on [3H]-methylated DNA substrate; format: biochemical; conditions: 30 min at 37° C. incubation with inactivator
Protocol: as §1, §2, §3

[3] = target: T2, mutant human alkyltransferase P140A (Homo sapiens, UniProt P16455, P140A); test: Inactivation of purified mutant human AGT P140A, residual activity on [3H]-methylated DNA substrate; format: biochemical; conditions: 30 min at 37° C. incubation with inactivator
T2 construct: made in house; E. coli by own knowledge of pIN vectors
T2 sequence (P16455 1-207 P140A): T1 sequence (P16455 1-207 G156A) with P140A, A156G
Protocol: as §1, §2, §3

[4] = target: wild-type human alkyltransferase (AGT); conditions: data previously published, read-out: ED50 for inactivation of AGT; cited from earlier work
[5] = system: AGT; conditions: cell culture; maximal reduction attained (Pegg et al. (1995)); cited from earlier work
[6] = target: T1, mutant human alkyltransferase G156A; conditions: G156A mutant AGT; data previously published; read-out: ED50 for inactivation of AGT; cited from earlier work
[7] = target: T2, mutant human alkyltransferase P140A; conditions: P140A mutant AGT; data previously published; read-out: ED50 for inactivation of AGT; cited from earlier work

| Molecule | ED50 for inactivation of AGT (concentration needed to reduce AGT activity by 50%) [1] | ED50 for inactivation of AGT (concentration needed to reduce AGT activity by 50%) [2] | ED50 for inactivation of AGT (concentration needed to reduce AGT activity by 50%) [3] | IC50 [4] | reduction of AGT activity [5] | IC50 [6] | IC50 [7] |
| --- | --- | --- | --- | --- | --- | --- | --- |
| 5'-d(Ab^6 GC)-3' | 4600 nM | 90 nM | 770 nM |  |  |  |  |
| 5'-d(GAb^6 GCT)-3' | 60 nM | 13 nM | 50 nM |  |  |  |  |
| 5'-d(GTGAb^6 GCTGT)-3' | 90 nM | 8 nM | 60 nM |  |  |  |  |
| 5'-d(TGAb^6 GCTG)-3' | 50 nM | 7 nM | 60 nM |  |  |  |  |
| 5'-d(TGTGAb^6 GCTGTG)-3' | 110 nM | 13 nM | 75 nM |  |  |  |  |
| Nc1nc(OCc2ccccc2)c2[nH]cnc2n1 [O^6 -benzylguanine] |  |  |  | 200 nM |  |  |  |
| COc1nc(N)nc2[nH]cnc12 [O^6 -methylguanine] |  |  |  |  | 85% |  |  |
| Nc1nc(OCc2ccccc2)c2ncn([C@H]3C[C@H](O)[C@@H](CO)O3)c2n1 [O^6-benzyl-2'-deoxyguanosine] |  |  |  | 2000 nM |  | > 100 µM | > 20 µM |
